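Five concentrations, 48 hours, 96-well plates. GI50 is the concentration that inhibits growth by half. TGI is the concentration that stops growth completely.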
Tests used:
Assay in all cases: DTP human tumour cell line panel, 48 h
786-0 renal = system: 786-0 renal
NCI-H23 lung = system: NCI-H23 lung
IGROV1 ovarian = system: IGROV1 ovarian
CCRF-CEM leukemia = system: CCRF-CEM leukemia
SN12C renal = system: SN12C renal
HCC-2998 colon = system: HCC-2998 colon
MOLT-4 leukemia = system: MOLT-4 leukemia
NCI-H226 lung = system: NCI-H226 lung
HOP-92 NSCLC = system: HOP-92 NSCLC
HS 578T breast = system: HS 578T breast
KM12 colon = system: KM12 colon
SF-539 CNS = system: SF-539 CNS
UO-31 renal = system: UO-31 renal
RXF 393 renal = system: RXF 393 renal
SK-MEL-5 melanoma = system: SK-MEL-5 melanoma
K-562 leukemia = system: K-562 leukemia
UACC-257 melanoma = system: UACC-257 melanoma
SK-MEL-2 melanoma = system: SK-MEL-2 melanoma
SK-MEL-28 melanoma = system: SK-MEL-28 melanoma
OVCAR-8 ovarian = system: OVCAR-8 ovarian
HCT-116 colon = system: HCT-116 colon
OVCAR-4 ovarian = system: OVCAR-4 ovarian
SW-620 colon = system: SW-620 colon
SNB-19 CNS = system: SNB-19 CNS
A549 NSCLC = system: A549 NSCLC
A498 renal = system: A498 renal
UACC-62 melanoma = system: UACC-62 melanoma
MCF7 breast = system: MCF7 breast
ACHN renal = system: ACHN renal
SF-295 CNS = system: SF-295 CNS
NCI-H522 lung = system: NCI-H522 lung
COLO 205 colon = system: COLO 205 colon
NCI-H460 lung = system: NCI-H460 lung
BT-549 breast = system: BT-549 breast
OVCAR-5 ovarian = system: OVCAR-5 ovarian
PC-3 prostate = system: PC-3 prostate
U251 CNS = system: U251 CNS
SNB-75 CNS = system: SNB-75 CNS
DU-145 prostate = system: DU-145 prostate
SR leukemia = system: SR leukemia
T-47D breast = system: T-47D breast
SK-OV-3 ovarian = system: SK-OV-3 ovarian
TK-10 renal = system: TK-10 renal
M14 melanoma = system: M14 melanoma
HT29 colon = system: HT29 colon
OVCAR-3 ovarian = system: OVCAR-3 ovarian
LOX IMVI melanoma = system: LOX IMVI melanoma
SF-268 CNS = system: SF-268 CNS
EKVX NSCLC = system: EKVX NSCLC
MDA-MB-435 = system: MDA-MB-435
MDA-MB-231 breast = system: MDA-MB-231 breast
RPMI-8226 leukemia = system: RPMI-8226 leukemia
HL-60(TB) leukemia = system: HL-60(TB) leukemia
HOP-62 NSCLC = system: HOP-62 NSCLC
NCI/ADR-RES ovarian = system: NCI/ADR-RES ovarian
MALME-3M melanoma = system: MALME-3M melanoma
HCT-15 colon = system: HCT-15 colon

CC(=O)OCC1OC(OC2C(COC(C)=O)OC(OCCC[S-])C(OC(C)=O)C2OC(C)=O)C(OC(C)=O)C(OC(C)=O)C1OC(C)=O.[Au+].c1ccc(CN2[CH-]N(Cc3ccccc3)C(c3ccccc3)=C2c2ccccc2)cc1 (centres undefined)
GI50 (786-0 renal): 2.8 µM | TGI (786-0 renal): 8.56 µM | GI50 (NCI-H23 lung): 3.23 µM | TGI (NCI-H23 lung): 14 µM | GI50 (IGROV1 ovarian): 3.06 µM | TGI (IGROV1 ovarian): 16 µM | GI50 (CCRF-CEM leukemia): 3.39 µM | TGI (CCRF-CEM leukemia): 21.5 µM | GI50 (SN12C renal): 3.32 µM | TGI (SN12C renal): 15 µM | GI50 (HCC-2998 colon): 3.49 µM | TGI (HCC-2998 colon): 15.4 µM | GI50 (MOLT-4 leukemia): 3.42 µM | TGI (MOLT-4 leukemia): 26 µM | GI50 (NCI-H226 lung): 4.68 µM | TGI (NCI-H226 lung): 33 µM | GI50 (HOP-92 NSCLC): 2.37 µM | TGI (HOP-92 NSCLC): 6.24 µM | GI50 (HS 578T breast): 9.16 µM | TGI (HS 578T breast): 87.7 µM | GI50 (KM12 colon): 3.8 µM | TGI (KM12 colon): 16.1 µM | GI50 (SF-539 CNS): 4.46 µM | TGI (SF-539 CNS): 17.6 µM | GI50 (UO-31 renal): 2.61 µM | TGI (UO-31 renal): 10.7 µM | GI50 (RXF 393 renal): 3.28 µM | TGI (RXF 393 renal): 12.3 µM | GI50 (SK-MEL-5 melanoma): 1.97 µM | TGI (SK-MEL-5 melanoma): 4.41 µM | GI50 (K-562 leukemia): 3.27 µM | TGI (K-562 leukemia): 14.5 µM | GI50 (UACC-257 melanoma): 3.44 µM | TGI (UACC-257 melanoma): 10.4 µM | GI50 (SK-MEL-2 melanoma): 2.99 µM | TGI (SK-MEL-2 melanoma): 8.92 µM | GI50 (SK-MEL-28 melanoma): 3.53 µM | TGI (SK-MEL-28 melanoma): 18.5 µM | GI50 (OVCAR-8 ovarian): 3.75 µM | TGI (OVCAR-8 ovarian): > 100 µM | GI50 (HCT-116 colon): 2.72 µM | TGI (HCT-116 colon): 10.9 µM | GI50 (OVCAR-4 ovarian): 3.45 µM | TGI (OVCAR-4 ovarian): 22.9 µM | GI50 (SW-620 colon): 3.68 µM | TGI (SW-620 colon): 13.8 µM | GI50 (SNB-19 CNS): 3.66 µM | TGI (SNB-19 CNS): 15.2 µM | GI50 (A549 NSCLC): 4.29 µM | TGI (A549 NSCLC): 25 µM | GI50 (A498 renal): 3.41 µM | TGI (A498 renal): 11.1 µM | GI50 (UACC-62 melanoma): 2.63 µM | TGI (UACC-62 melanoma): 8.96 µM | GI50 (MCF7 breast): 2.44 µM | TGI (MCF7 breast): 9.58 µM | GI50 (ACHN renal): 2.9 µM | TGI (ACHN renal): 10.6 µM | GI50 (SF-295 CNS): 2.14 µM | TGI (SF-295 CNS): 7.3 µM | GI50 (NCI-H522 lung): 1.72 µM | TGI (NCI-H522 lung): 4.55 µM | GI50 (COLO 205 colon): 2.68 µM | TGI (COLO 205 colon): 7.61 µM | GI50 (NCI-H460 lung): 3.45 µM | TGI (NCI-H460 lung): 12.8 µM | GI50 (BT-549 breast): 3.37 µM | TGI (BT-549 breast): 14.8 µM | GI50 (OVCAR-5 ovarian): 5.67 µM | TGI (OVCAR-5 ovarian): 27 µM | GI50 (PC-3 prostate): 3.28 µM | TGI (PC-3 prostate): 15 µM | GI50 (U251 CNS): 2.77 µM | TGI (U251 CNS): 7.47 µM | GI50 (SNB-75 CNS): 2.86 µM | TGI (SNB-75 CNS): 17 µM | GI50 (DU-145 prostate): 4.5 µM | TGI (DU-145 prostate): 17 µM | GI50 (SR leukemia): 2.61 µM | TGI (SR leukemia): 20.6 µM | GI50 (T-47D breast): 3.28 µM | TGI (T-47D breast): 18.5 µM | GI50 (SK-OV-3 ovarian): 3.06 µM | TGI (SK-OV-3 ovarian): 12.6 µM | GI50 (TK-10 renal): 3.57 µM | TGI (TK-10 renal): 14.8 µM | GI50 (M14 melanoma): 3.26 µM | TGI (M14 melanoma): 14.5 µM | GI50 (HT29 colon): 3.23 µM | TGI (HT29 colon): 13.6 µM | GI50 (OVCAR-3 ovarian): 2.62 µM | TGI (OVCAR-3 ovarian): 8.48 µM | GI50 (LOX IMVI melanoma): 3.42 µM | TGI (LOX IMVI melanoma): 13.6 µM | GI50 (SF-268 CNS): 5.2 µM | TGI (SF-268 CNS): 24.9 µM | GI50 (EKVX NSCLC): 3.15 µM | TGI (EKVX NSCLC): 15.9 µM | GI50 (MDA-MB-435): 3.18 µM | TGI (MDA-MB-435): 13.6 µM | GI50 (MDA-MB-231 breast): 2.38 µM | TGI (MDA-MB-231 breast): 5.93 µM | GI50 (RPMI-8226 leukemia): 2.78 µM | TGI (RPMI-8226 leukemia): 11.1 µM | GI50 (HL-60(TB) leukemia): 2.49 µM | TGI (HL-60(TB) leukemia): 6.43 µM | GI50 (HOP-62 NSCLC): 3.75 µM | TGI (HOP-62 NSCLC): 18.2 µM | GI50 (NCI/ADR-RES ovarian): 19.5 µM | TGI (NCI/ADR-RES ovarian): > 100 µM | GI50 (MALME-3M melanoma): 2.19 µM | TGI (MALME-3M melanoma): 6.56 µM | GI50 (HCT-15 colon): 3.17 µM | TGI (HCT-15 colon): 12.2 µM
